# pEC50, pIC50: −log10 of the molar value. Active and inactive are the calls of the source. The calls are words filed in the database; no cut-off is given here.
# What was measured:
# Hepatitis B virus [1] = test: Antiviral activity against HBV in human HepG2.2.15 cells assessed as reduction in viral replication incubated for 5 days by real-time PCR analysis; format: functional, organism-based; conditions: HepG2.2.15, 120 h
# [2] = Cytotoxicity in human HepG2.2.15 cells assessed as reduction in cell viability; format: toxicity, cell-based, HepG2 2.2.15
# [3] = Selectivity index, ratio of CC50 for cytotoxicity in human HepG2.2.15 cells assessed as reduction in cell viability to EC50 for antiviral activity against HBV in human HepG2.2.15 cells assessed as reduction in viral replication; format: toxicity, cell-based; conditions: read-out: Ratio CC50/EC50
# [4] = Metabolic stability in mouse liver microsomes assessed as compound remaining measured after 30 mins; format: ADME, Microsome; conditions: read-out: Stability
# [5] = Metabolic stability in rat liver microsomes assessed as compound remaining measured after 30 mins; format: ADME, Microsome; conditions: read-out: Stability
# [6] = Metabolic stability in human liver microsomes assessed as compound remaining measured after 30 mins; format: ADME, Microsome; conditions: read-out: Stability
# [7] = Stability in mouse plasma assessed as compound remaining incubated for 4 hrs; format: ADME, cell-free; conditions: read-out: Stability
# [8] = Stability in human plasma assessed as compound remaining incubated for 4 hrs; format: ADME, cell-free; conditions: read-out: Stability
# [9] = Plasma protein binding in mouse; format: ADME, cell-free; conditions: read-out: PPB (converted)
# [10] = Plasma protein binding in human; format: ADME, cell-free; conditions: read-out: PPB (converted)
# [11] = Cytotoxicity in mouse NIH3T3 cells; format: toxicity, cell-based
# [12] = Cytotoxicity in CHO-K1 cells; format: toxicity, cell-based, Cricetulus griseus; conditions: Chinese hamster
# Cytochrome P450 1A2 = molecular target: T1, Cytochrome P450 1A2 (Homo sapiens, UniProt P05177); test: Inhibition of CYP1A2 in human liver microsome; format: ADME, microsomes
# T1 sequence (P05177 whole entry): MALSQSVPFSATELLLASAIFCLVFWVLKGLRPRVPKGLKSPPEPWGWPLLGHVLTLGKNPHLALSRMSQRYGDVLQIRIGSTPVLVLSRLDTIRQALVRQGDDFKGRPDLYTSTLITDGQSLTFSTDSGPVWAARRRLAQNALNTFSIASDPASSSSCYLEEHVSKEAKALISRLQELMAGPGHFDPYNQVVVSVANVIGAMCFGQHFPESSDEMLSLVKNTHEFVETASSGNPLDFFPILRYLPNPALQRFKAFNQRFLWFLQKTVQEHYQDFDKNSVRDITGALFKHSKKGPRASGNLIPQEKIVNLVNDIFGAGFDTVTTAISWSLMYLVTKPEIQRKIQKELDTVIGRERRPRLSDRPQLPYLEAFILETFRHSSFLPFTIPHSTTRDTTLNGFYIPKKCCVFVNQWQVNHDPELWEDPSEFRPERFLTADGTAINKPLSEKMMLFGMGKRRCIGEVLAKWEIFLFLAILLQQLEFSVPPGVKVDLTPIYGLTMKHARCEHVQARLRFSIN
# Cytochrome P450 2C9 = Cytochrome P450 2C9 (Homo sapiens, UniProt P11712); test: Inhibition of CYP2C9 in human liver microsome; format: ADME, microsomes
# Cytochrome P450 2D6 = Cytochrome P450 2D6 (Homo sapiens, UniProt P10635); test: Inhibition of CYP2D6 in human liver microsome; format: ADME, microsomes
# Cytochrome P450 3A4 = Cytochrome P450 3A4 (Homo sapiens, UniProt P08684); test: Inhibition of CYP3A4 in human liver microsome; format: ADME, microsomes
# [13] = molecular target: Voltage-gated inwardly rectifying potassium channel KCNH2 (Homo sapiens, UniProt Q12809); test: Inhibition of human ERG; format: toxicity
# Hepatitis B virus [14] = test: Antiviral activity against HBV in human HepG2 cells expressing NTCP assessed as reduction in viral replication; format: functional, organism-based
# [15] = Cytotoxicity in human HepG2-hNTCP cells assessed as reduction in cell viability; format: toxicity, cell-based
# [16] = AUClast in male mouse at 5 mg/kg, iv; format: ADME, organism-based; conditions: in vivo
# [17] = AUC (0 to infinity) in male mouse at 5 mg/kg, iv; format: ADME, organism-based; conditions: in vivo
# [18] = Volume of distribution at steady state in male mouse at 5 mg/kg, iv; format: ADME, organism-based; conditions: in vivo, read-out: Vdss
# [19] = Half life in male mouse at 20 mg/kg, iv; format: ADME, organism-based; conditions: in vivo
# [20] = AUClast in male mouse at 20 mg/kg, iv; format: ADME, organism-based; conditions: in vivo
# [21] = AUC (0 to infinity) in male mouse at 20 mg/kg, iv; format: ADME, organism-based; conditions: in vivo
# [22] = Clearance in male mouse at 20 mg/kg, iv; format: ADME, organism-based; conditions: in vivo
# [23] = Volume of distribution at steady state in male mouse at 20 mg/kg, iv; format: ADME, organism-based; conditions: in vivo, read-out: Vdss
# [24] = Cmax in male mouse at 5 mg/kg, po; format: ADME, organism-based; conditions: in vivo
# [25] = AUClast in male mouse at 5 mg/kg, po; format: ADME, organism-based; conditions: in vivo
# [26] = Oral bioavailability in male mouse at 5 mg/kg; format: ADME, organism-based; conditions: in vivo
# [27] = Tmax in male mouse at 20 mg/kg, po; format: ADME, organism-based; conditions: in vivo
# [28] = Cmax in male mouse at 20 mg/kg, po; format: ADME, organism-based; conditions: in vivo
# [29] = Half life in male mouse at 20 mg/kg, po; format: ADME, organism-based; conditions: in vivo
# [30] = AUC (0 to infinity) in male mouse at 20 mg/kg, po; format: ADME, organism-based; conditions: in vivo
# [31] = Oral bioavailability in male mouse at 20 mg/kg; format: ADME, organism-based; conditions: in vivo
# Hepatitis B virus [32] = test: Antiviral activity against HBV infected in human HepG2 cells expressing NTCP assessed as viral DNA replication at 1 uM incubated for 6 days by Southern blot analysis (reference value: 100 %); format: functional; conditions: time 6 day
# Hepatitis B virus [33] = test: Antiviral activity against HBV infected in human HepG2 cells expressing NTCP assessed as fold reduction in capsid associated viral DNA level at 1 uM incubated for 6 days by Southern blot analysis relative to control; format: functional; conditions: time 6 day
# Hepatitis B virus [34] = test: Antiviral activity against HBV infected in human HepG2 cells expressing NTCP assessed as capsid level at 1 uM incubated for 6 days by Western blot analysis (reference value: 100 %); format: functional; conditions: time 6 day
# Hepatitis B virus [35] = test: Antiviral activity against HBV infected in human HepG2 cells expressing NTCP assessed as capsid associated HBV DNA level at 1 uM incubated for 6 days by Western blot analysis (reference value: 100 %); format: functional; conditions: time 6 day
# HepG2 [36] = test: Effect on viral rcDNA level in human HepG2 cells expressing NTCP infected with HBV at 1 uM incubated for 6 days by Southern blot analysis; format: functional, cell-based; conditions: time 6.0 day
# HepG2 [37] = test: Effect on viral dslDNA level in human HepG2 cells expressing NTCP infected with HBV at 1 uM incubated for 6 days by Southern blot analysis; format: functional, cell-based; conditions: time 6.0 day
# Hepatitis B virus [38] = test: Antiviral activity against HBV infected in human HepG2 cells expressing NTCP assessed as fold increase in intracellular capsid level at 1 uM incubated for 6 days by Western blot analysis relative to control; format: functional; conditions: time 6 day
# [39] = molecular target: Core antigen (Hepatitis B virus) (UniProt Q03732); test: Binding affinity to HBV core protein dimers extracted from Escherichia coli assessed as retention volume at peak of capsid assembly by size exclusion chromatography (reference value: 8.63 mL)
# [40] = molecular target: Core antigen (Hepatitis B virus) (UniProt Q03732); test: Binding affinity to HBV core protein dimers extracted from Escherichia coli assessed as clump formation of assembled capsids by negative staining electron microscopic analysis
# Hepatitis B virus [41] = test: Antiviral activity against HBV infected in human HepG2 cells expressing NTCP assessed as intracellular HBc level at 1 uM incubated for 6 days by Western blot analysis (reference value: 100 %); format: functional; conditions: time 6 day
# Core antigen (Hepatitis B virus), sequence (Q03732 as listed by the source): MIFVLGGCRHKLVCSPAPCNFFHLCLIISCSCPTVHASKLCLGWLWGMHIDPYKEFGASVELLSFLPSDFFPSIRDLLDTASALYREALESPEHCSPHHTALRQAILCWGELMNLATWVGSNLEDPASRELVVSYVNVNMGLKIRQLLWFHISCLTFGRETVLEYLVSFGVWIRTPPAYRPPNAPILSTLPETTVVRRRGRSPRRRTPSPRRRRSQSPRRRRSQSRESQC
# Cytochrome P450 2C9, sequence (P11712 whole entry): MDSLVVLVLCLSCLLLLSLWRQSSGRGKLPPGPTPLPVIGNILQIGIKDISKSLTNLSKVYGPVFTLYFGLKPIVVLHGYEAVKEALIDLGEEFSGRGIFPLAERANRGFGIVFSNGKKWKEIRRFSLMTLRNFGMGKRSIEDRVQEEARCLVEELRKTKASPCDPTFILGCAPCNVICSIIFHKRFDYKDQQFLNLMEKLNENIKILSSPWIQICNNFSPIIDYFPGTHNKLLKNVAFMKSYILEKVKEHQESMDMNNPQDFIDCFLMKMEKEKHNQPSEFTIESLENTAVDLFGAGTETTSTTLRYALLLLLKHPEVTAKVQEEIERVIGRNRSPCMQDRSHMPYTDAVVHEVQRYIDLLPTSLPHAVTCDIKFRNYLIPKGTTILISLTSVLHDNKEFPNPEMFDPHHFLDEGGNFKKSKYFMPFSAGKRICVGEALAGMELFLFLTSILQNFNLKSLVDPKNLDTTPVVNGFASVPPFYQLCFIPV
# Voltage-gated inwardly rectifying potassium channel KCNH2, sequence (Q12809 whole entry): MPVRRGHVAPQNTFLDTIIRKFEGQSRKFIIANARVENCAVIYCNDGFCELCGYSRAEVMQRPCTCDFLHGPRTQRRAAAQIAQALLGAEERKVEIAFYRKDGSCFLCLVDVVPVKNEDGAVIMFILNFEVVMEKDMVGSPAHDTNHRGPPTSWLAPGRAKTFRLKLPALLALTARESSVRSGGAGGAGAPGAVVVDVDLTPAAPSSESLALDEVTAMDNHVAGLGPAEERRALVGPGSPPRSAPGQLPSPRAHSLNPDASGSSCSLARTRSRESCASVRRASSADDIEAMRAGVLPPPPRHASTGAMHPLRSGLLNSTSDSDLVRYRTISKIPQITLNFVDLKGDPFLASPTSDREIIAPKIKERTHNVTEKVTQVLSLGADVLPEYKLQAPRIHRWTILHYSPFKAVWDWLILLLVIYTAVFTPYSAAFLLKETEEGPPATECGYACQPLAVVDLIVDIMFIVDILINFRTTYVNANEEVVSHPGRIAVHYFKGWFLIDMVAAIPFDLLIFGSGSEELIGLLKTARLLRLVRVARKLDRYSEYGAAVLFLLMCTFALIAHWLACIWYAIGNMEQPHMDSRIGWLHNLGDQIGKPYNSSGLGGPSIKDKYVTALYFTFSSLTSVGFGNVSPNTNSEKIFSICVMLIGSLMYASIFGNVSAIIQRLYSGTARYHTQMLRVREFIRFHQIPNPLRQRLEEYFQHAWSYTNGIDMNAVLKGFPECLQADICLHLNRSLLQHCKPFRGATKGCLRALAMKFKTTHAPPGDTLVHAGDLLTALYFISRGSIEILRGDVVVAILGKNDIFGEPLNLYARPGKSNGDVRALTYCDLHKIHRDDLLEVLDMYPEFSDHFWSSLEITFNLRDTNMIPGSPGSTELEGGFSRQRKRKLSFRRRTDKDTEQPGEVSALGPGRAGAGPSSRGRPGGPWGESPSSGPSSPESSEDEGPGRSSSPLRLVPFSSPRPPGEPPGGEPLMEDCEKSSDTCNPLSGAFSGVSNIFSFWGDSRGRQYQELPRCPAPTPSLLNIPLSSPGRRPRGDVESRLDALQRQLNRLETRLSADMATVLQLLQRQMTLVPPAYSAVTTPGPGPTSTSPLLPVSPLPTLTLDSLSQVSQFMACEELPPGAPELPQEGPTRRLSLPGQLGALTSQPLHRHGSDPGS
# Cytochrome P450 2D6, sequence (P10635 whole entry): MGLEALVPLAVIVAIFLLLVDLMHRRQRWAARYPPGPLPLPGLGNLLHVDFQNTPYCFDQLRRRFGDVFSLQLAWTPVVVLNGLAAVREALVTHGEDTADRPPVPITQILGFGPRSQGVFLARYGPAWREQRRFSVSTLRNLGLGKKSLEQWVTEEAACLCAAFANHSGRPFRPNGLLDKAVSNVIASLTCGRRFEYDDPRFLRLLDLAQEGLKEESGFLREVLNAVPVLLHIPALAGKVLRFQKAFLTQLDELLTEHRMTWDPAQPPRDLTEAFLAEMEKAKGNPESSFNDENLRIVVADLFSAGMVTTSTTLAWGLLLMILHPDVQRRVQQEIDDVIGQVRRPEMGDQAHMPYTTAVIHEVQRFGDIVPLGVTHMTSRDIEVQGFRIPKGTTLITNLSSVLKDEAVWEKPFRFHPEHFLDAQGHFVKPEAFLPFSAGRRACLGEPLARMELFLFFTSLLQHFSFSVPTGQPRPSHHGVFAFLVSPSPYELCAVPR
# Cytochrome P450 3A4, sequence (P08684 whole entry): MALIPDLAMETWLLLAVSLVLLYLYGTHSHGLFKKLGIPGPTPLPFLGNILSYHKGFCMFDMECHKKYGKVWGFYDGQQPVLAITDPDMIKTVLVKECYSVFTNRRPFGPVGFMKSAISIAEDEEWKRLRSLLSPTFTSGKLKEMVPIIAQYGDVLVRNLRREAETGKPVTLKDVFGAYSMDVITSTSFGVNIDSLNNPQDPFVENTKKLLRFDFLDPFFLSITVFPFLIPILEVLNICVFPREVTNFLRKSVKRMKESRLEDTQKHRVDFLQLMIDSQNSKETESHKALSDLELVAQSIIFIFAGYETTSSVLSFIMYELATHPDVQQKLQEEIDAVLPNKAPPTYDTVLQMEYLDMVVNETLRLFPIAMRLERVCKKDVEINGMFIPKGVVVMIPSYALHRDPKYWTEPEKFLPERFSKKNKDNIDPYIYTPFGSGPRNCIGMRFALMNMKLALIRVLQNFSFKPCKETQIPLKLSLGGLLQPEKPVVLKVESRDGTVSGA
smiles,measurement,setting,value
Nc1cc(F)c(S(=O)(=O)NC2COC2)cc1C(=O)Nc1ccc(F)c(C(F)F)c1,pEC50,Hepatitis B virus [1],7.30
same,CC50,[2],> 900 µM
same,selectivity ratio,[3],> 17500
same,remaining at 0.5 h,[4],56.8%
same,remaining at 0.5 h,[5],45.4%
same,remaining at 0.5 h,[6],> 100%
same,remaining at 4 h,[7],94.5%
same,remaining at 4 h,[8],94%
same,fraction unbound,[9],0.143
same,fraction unbound,[10],0.128
same,pIC50,[11],< 4.00
same,pIC50,[12],< 4.00
same,pIC50,Cytochrome P450 1A2,< 4.00
same,pIC50,Cytochrome P450 2C9,< 4.00
same,pIC50,Cytochrome P450 2D6,< 4.00
same,pIC50,Cytochrome P450 3A4,< 4.00
same,pIC50,[13],< 5.00
same,pEC50,Hepatitis B virus [14],7.70
same,CC50,[15],63.2 µM
same,AUC(0-t),[16],850 ng·h/mL
same,AUC(0-inf),[17],900 ng·h/mL
same,Vd,[18],29.1 L/kg
same,half-life,[19],576 min
same,AUC(0-t),[20],4610 ng·h/mL
same,AUC(0-inf),[21],5460 ng·h/mL
same,clearance,[22],65.5 mL/min/kg
same,Vd,[23],46.5 L/kg
same,Cmax,[24],540 ng/mL
same,AUC(0-t),[25],560 ng·h/mL
same,bioavailability,[26],66.2%
same,Tmax,[27],25.2 min
same,Cmax,[28],370 ng/mL
same,half-life,[29],52.2 min
same,AUC(0-inf),[30],280 ng·h/mL
same,bioavailability,[31],5.89%
same,Activity,Hepatitis B virus [32],6%
same,fold change (FC),Hepatitis B virus [33],16
same,Activity,Hepatitis B virus [34],205%
same,Activity,Hepatitis B virus [35],14%
same,Activity,HepG2 [36],No effect
same,Activity,HepG2 [37],No effect
same,fold change (FC),Hepatitis B virus [38],~2
same,Activity,[39],8.62 mL
same,Activity,[40],Active
same,Activity,Hepatitis B virus [41],113%
